Measured values as given in patent US6426229B1, “Chelating agent and detergent comprising the same” (Mitsubishi Rayon Co., Ltd., priority 1995, dated 2002).

Assay: Compression strength (hardening property) of powder stored under load for 2 months
Assay type: physicochemical
Details: for Compression strength after stored for 2 months: 20-30° C., relative humidity 40-70%
Method: Method for the Measurement of Compression Strength
(1) A test sample (500 g) is put in a poly-ethylene bag of 20 cm×20 cm in a room at a temperature of 20-30° C. and a relative humidity of 40-70%. The powder is levelled to an area of 20 cm×20 cm and air is forced out of the bag, and, then, the bag is sealed. This bag is further put in a kraft bag and this kraft bag is sealed.
(2) The kraft bag of (1) is placed horizontally on a flat plate and a plate is put thereon. […]
(3) With keeping the temperature of 20-30° C. and the relative humidity of 40-70%, the test sample is taken out after lapse of 2 months from the starting of application of load. Several test pieces (4 cm long×4 cm broad×2 cm high) are cut out from the sample.

[1] = Load 200 (table head [Kg]; text 200 g/cm^2)
[2] = Load 300 (table head [Kg]; text 300 g/cm^2)
[3] = Load 100 (table head [Kg]; text 100 g/cm^2)
[4] = after 2 months under the load of 200 [g/cm^2]

| SMILES | Compression strength after stored for 2 months [1] | Compression strength after stored for 2 months [3] | other results |
| --- | --- | --- | --- |
| O=C([O-])C[C@H](NCCN[C@@H](CC(=O)[O-])C(=O)[O-])C(=O)[O-].[Fe+3].[NH4+] [Example 79, iron ammonium (S,S)-ethylenediaminedisuccinate] | 0.9 Kg/cm^2 |  |  |
| O=C(O)C[C@H](NCCN[C@@H](CC(=O)O)C(=O)O)C(=O)O [Example 71, ethylenediaminedisuccinic acid] |  |  | Compression strength after stored for 2 months [2]: 1.2 Kg/cm^2 |
| O=C(O)CCN[C@@H](CC(=O)O)C(=O)O [Example 22, (S)-aspartic acid-N-monopropionic acid] |  |  | Compression strength after stored for 2 months [2]: 0.9 Kg/cm^2 |
| O=C(O)C[C@@H](C(=O)O)N(CC(=O)O)CC(=O)O [Example 15, (S)-aspartic acid-N,N-diacetic acid] | 0.9 Kg/cm^2 |  |  |
| O=C(O)C[C@H](NCCN[C@@H](CC(=O)O)C(=O)O)C(=O)O [Example 72, (S,S)-ethylenediaminedisuccinic acid] |  |  | Compression strength after stored for 2 months [2]: 1.3 Kg/cm^2 |
| CN(CC(=O)[O-])CC(=O)[O-].[Na+].[Na+] [Example 29, disodium N-methyliminodiacetate] |  | 1.2 Kg/cm^2 |  |
| O=C(O)C[C@H](NCCN[C@@H](CC(=O)O)C(=O)O)C(=O)O [Example 62, (S,S)-ethylenediaminedisuccinic acid] | 1.0 Kg/cm^2 |  |  |
| O=C([O-])CN[C@@H](CC(=O)[O-])C(=O)[O-].[Na+].[Na+].[Na+] [Example 9, trisodium salt of (S)-aspartic acid-N-monoacetic acid] |  |  | Compression strength after stored for 2 months [2]: 0.8 Kg/cm^2 |
| O=C(O)C[C@H](NCCCN[C@@H](CC(=O)O)C(=O)O)C(=O)O [Example 64, (S,S)-1,3-propanediaminedisuccinic acid] | 0.9 Kg/cm^2 |  |  |
| C[C@@H](C(=O)[O-])N(CC(=O)[O-])CC(=O)[O-].[Na+].[Na+].[Na+] [Example 4, trisodium salt of (S)-α-alanine-N,N-diacetic acid] | 1.1 Kg/cm^2 |  |  |
| O=C([O-])CN(CC(=O)[O-])c1ccccc1C(=O)[O-].[Na+].[Na+].[Na+] [Example 27, trisodium salt of anthranilic acid-N,N-diacetic acid] | 1.0 Kg/cm^2 |  |  |
| C[C@@H](C(=O)O)N(CC(=O)O)CC(=O)O [Example 24, (S)-α-alanine-N,N-diacetic acid] |  |  | Compression strength after stored for 2 months [2]: 0.9 Kg/cm^2 |
| O=C(O)C[C@H](NCCN[C@@H](CC(=O)O)C(=O)O)C(=O)O [compound 21, ethylenediaminedisuccinic acid, reference compound] |  | 2.8 Kg/cm^2 |  |
| O=C(O)C[C@H](NCCCN[C@@H](CC(=O)O)C(=O)O)C(=O)O [Example 74, (S,S)-1,3-propanediaminedisuccinic acid] |  |  | Compression strength after stored for 2 months [2]: 1.2 Kg/cm^2 |
| O=C([O-])C[C@H](NCCN[C@@H](CC(=O)[O-])C(=O)[O-])C(=O)[O-].[Na+].[Na+].[Na+].[Na+] [Example 47, tetrasodium (S,S)-ethylenediaminedisuccinate] | 1.2 Kg/cm^2 |  |  |
| O=C(O)C[C@H](NCC(O)CN[C@@H](CC(=O)O)C(=O)O)C(=O)O [Example 65, (S,S)-2-hydroxy-1,3-propanediaminedisuccinic acid] | 1.0 Kg/cm^2 |  |  |
| O=C(O)CN[C@@H](CC(=O)O)C(=O)O [Example 21, (S)-aspartic acid-N-monoacetic acid] |  |  | Compression strength after stored for 2 months [2]: 0.8 Kg/cm^2 |
| C[C@@H](C(=O)[O-])N(CC(=O)[O-])CC(=O)[O-].[Na+].[Na+].[Na+] [Example 12, trisodium salt of (S)-α-alanine-N,N-diacetic acid] |  |  | Compression strength after stored for 2 months [2]: 0.9 Kg/cm^2 |
| O=C(O)CN(CCS(=O)(=O)O)CC(=O)O [Example 37, taurine-N,N-diacetic acid] |  | 1.0 Kg/cm^2 |  |
| O=C(O)CC(NCCCNC(CC(=O)O)C(=O)O)C(=O)O (stereo not shown) [compound 23, 1,3-propanediaminedisuccinic acid, reference compound] |  | 2.7 Kg/cm^2 |  |
| O=C([O-])C[C@H](NCC(O)CN[C@@H](CC(=O)[O-])C(=O)[O-])C(=O)[O-].[Na+].[Na+].[Na+].[Na+] [Example 60, tetrasodium (S,S)-2-hydroxy-1,3-propanediaminedisuccinate] |  |  | Compression strength after stored for 2 months [2]: 1.2 Kg/cm^2 |

| SMILES | Compression strength after stored for 2 months [1] | Compression strength after stored for 2 months [3] | other results |
| --- | --- | --- | --- |
| C[C@@H](C(=O)O)N(CC(=O)O)CC(=O)O [compound 8, (S)-α-alanine-N,N-diacetic acid, reference compound] |  | 2.6 Kg/cm^2 |  |
| O=C(O)C[C@H](NCCN[C@@H](CC(=O)O)C(=O)O)C(=O)O [Example 67, (S,S)-ethylenediaminedisuccinic acid] |  | 1.1 Kg/cm^2 |  |
| O=C([O-])C[C@H](NCCN[C@@H](CC(=O)[O-])C(=O)[O-])C(=O)[O-].[Na+].[Na+].[Ni+2] [Example 81, nickel disodium (S,S)-ethylenediaminedisuccinate] | 1.2 Kg/cm^2 |  |  |
| O=C([O-])CC(NCCNC(CC(=O)[O-])C(=O)[O-])C(=O)[O-].[Na+].[Na+].[Na+].[Na+] (stereo not shown) [Example 46, tetrasodium ethylenediaminedisuccinate] | 1.1 Kg/cm^2 |  |  |
| O=C([O-])CC(NCCNC(CC(=O)[O-])C(=O)[O-])C(=O)[O-].[Na+].[Na+].[Na+].[Na+] (stereo not shown) [Example 56, tetrasodium ethylenediaminedisuccinate] |  |  | Compression strength after stored for 2 months [2]: 0.8 Kg/cm^2 |
| O=C([O-])CN[C@@H](CC(=O)[O-])C(=O)[O-].[Na+].[Na+].[Na+] [Example 1, trisodium salt of (S)-aspartic acid-N-monoacetic acid] |  |  | compression strength of the test piece [4]: 1.2 kg/cm^2; state of the test piece after storage [4]: it could be disintegrated without any special grinding treatment |
| O=C([O-])CC(NCCNC(CC(=O)[O-])C(=O)[O-])C(=O)[O-].[Fe+3].[NH4+] (stereo not shown) [Example 76, iron ammonium ethylenediaminedisuccinate] | 1.1 Kg/cm^2 |  |  |
| O=C(O)CN[C@@H](CC(=O)O)C(=O)O [compound 5, (S)-aspartic acid-N-monoacetic acid, reference compound] |  | 2.8 Kg/cm^2 |  |
| CN(CC(=O)[O-])CC(=O)[O-].[Na+].[Na+] [Example 32, disodium N-methyliminodiacetate] |  |  | Compression strength after stored for 2 months [2]: 0.8 Kg/cm^2 |
| O=C(O)C[C@H](NCCCN[C@@H](CC(=O)O)C(=O)O)C(=O)O [Example 69, (S,S)-1,3-propanediaminedisuccinic acid] |  | 1.0 Kg/cm^2 |  |
| CN(CC(=O)O)CC(=O)O [compound 13, N-methyliminodiacetic acid, reference compound] |  | 2.7 Kg/cm^2 |  |
| O=C(O)CCN[C@@H](CC(=O)O)C(=O)O [Example 14, (S)-aspartic acid-N-monopropionic acid] | 0.6 Kg/cm^2 |  |  |
| CN(CC(=O)O)CC(=O)O [Example 35, N-methyliminodiacetic acid] | 0.8 Kg/cm^2 |  |  |
| O=C([O-])CC(NCCCNC(CC(=O)[O-])C(=O)[O-])C(=O)[O-].[Na+].[Na+].[Ni+2] [Example 84, nickel disodium (S,S)-1,3-propanediaminedisuccinate] | 1.0 Kg/cm^2 |  |  |
| C[C@@H](C(=O)O)N(CC(=O)O)CC(=O)O [Example 20, (S)-α-alanine-N,N-diacetic acid] |  | 1.0 Kg/cm^2 |  |
| O=C(O)CC(NCCCNC(CC(=O)O)C(=O)O)C(=O)O (stereo not shown) [Example 68, 1,3-propanediaminedisuccinic acid] |  | 1.2 Kg/cm^2 |  |
| O=C([O-])CC(NCCCNC(CC(=O)[O-])C(=O)[O-])C(=O)[O-].[Na+].[Na+].[Na+].[Na+] (stereo not shown) [Example 53, tetrasodium 1,3-propanediaminedisuccinate] |  | 0.8 Kg/cm^2 |  |
| O=C([O-])CN(CC(=O)[O-])c1ccccc1C(=O)[O-].[Na+].[Na+].[Na+] [compound 11, trisodium salt of anthranilic acid-N,N-diacetic acid, reference compound] |  | 2.5 Kg/cm^2 |  |
| O=C(O)CN[C@@H](CC(=O)O)C(=O)O [Example 13, (S)-aspartic acid-N-monoacetic acid] | 1.1 Kg/cm^2 |  |  |
| O=C([O-])CN[C@@H](CC(=O)[O-])C(=O)[O-].[Na+].[Na+].[Na+] [Example 5, trisodium salt of (S)-aspartic acid-N-monoacetic acid] |  | 1.2 Kg/cm^2 |  |
| O=C(O)CCN[C@@H](CC(=O)O)C(=O)O [compound 6, (S)-aspartic acid-N-monopropionic acid, reference compound] |  | 2.5 Kg/cm^2 |  |
